Structures are written as SMILES.

Regarding `CCCCCCCCCCCC1Cc2cc(C(=O)O)ccc2N1` (racemic), the melting point is 99 to 103 °C.

Consider `CC1(C)CC(O)C(C)(C)c2cc(Cn3cccn3)c(/C=C/c3ccc(C(=O)O)cc3)cc21` (stereo unspecified), for which the melting point worked out at 242 °C.

Consider `CCNC(=O)CC1CCN(Cc2cnc3cc(NC(=O)c4ccc(-c5ccc(F)cc5)cc4)c(C)cc3c2)CC1`, for which the melting point is 251 °C.

The compound `CCOC(=O)C1CCCN(C(=O)C2CCC(Nc3nccc(-n4ccc5c(OCCCS(C)(=O)=O)cccc54)n3)CC2)C1` (stereo unspecified) yielded a melting point of 175 to 177 °C.

In the case of `N#Cc1cc(N)n(-c2c(Cl)cc(C(F)(F)F)cc2Cl)c1`, the melting point worked out at 176 °C.

In turn, `CC(C)(S)CN1CCN(c2ccc(C#N)cc2)CC1` had a melting point of 92 to 94 °C.

The compound `Clc1nc(OCc2ccccc2)c2[nH]cnc2n1` yielded a melting point of 195 to 196 °C.

The compound `CC(C)=NOc1cc(Cl)ccc1C#N` returned a melting point of 83 to 84 °C.

`OC12N=C(CSCc3ccccc3)SC1Cc1cc(Cl)ccc12` (stereo unspecified) showed a melting point of 102 to 104 °C.

`CCOC(=O)c1cnc(Nc2cccc([N+](=O)[O-])c2)[nH]c1=O` gave a melting point of 226 to 228 °C.

`Cc1cnc(CNC(=O)c2c(-c3ccccc3)c(-c3ccc(F)cc3)c(/C=C\[C@@H](O)C[C@@H](O)CC(=O)OC(C)(C)C)n2C(C)C)cn1` returned a melting point of 168 to 170 °C.

The compound `CCOC(=O)c1onc(O)c1C` came in with a melting point of 133 to 134 °C.

Take `CCOC(=O)c1c(N(C(=O)OC(C)(C)C)C(=O)OC(C)(C)C)sc(C)c1C`: the melting point lay in the range of 70 to 78 °C.

Regarding `CCOC(=O)c1cc(=O)c2cc3c(=O)cc(C(=O)OCC)n(CC)c3cc2o1`, the melting point was 193 to 194 °C.

`CC1(C)CCOC1=C(Sc1ccc(Cl)cc1)n1ccnc1` displayed a melting point of 134 °C.

Consider `COc1cc2c(cc1OC)/C(=C/c1cc(OC)c(OC)c(OC)c1)N(C(=O)C1CCCCC1)CC2`, for which the melting point lay in the range of 162 to 164 °C.

Consider `O=C(N[C@@H]1C2CCN(CC2)[C@H]1Cc1cccnc1)c1cc2ccccc2o1`, for which the melting point was in the range of 134 to 139 °C.

Take `O=C(O)C(Cc1ccccc1)=NNc1ccc(Cl)c(Cl)c1`: the melting point lay in the range of 166 to 167 °C.

Compound `CC(=O)Oc1cccc2sc(-c3ccc(C)cc3)nc12` returned a melting point of 110 to 113 °C.

`CC(=O)Nc1c(C(=O)C2CCCCC2)[nH]c2cc(Cl)ccc12` displayed a melting point of 198 °C.

Consider `Cn1nc(-c2cccc(Br)c2)cc1C(=O)O`, for which the melting point lay in the range of 166 to 169 °C.

In turn, `COc1ccc2c(c1)CCC2=NNS(=O)(=O)c1ccc(C)cc1` registered a melting point of 195 to 196 °C.

Take `O=C(c1ccc(Cl)cc1)c1c(N2C(=O)c3ccccc3C2=O)sc(Br)c1CO`: the melting point lay within 170 to 172 °C.

Compound `COc1cc2ncc(C#N)c(Nc3cccc(Cl)c3)c2cc1OC` returned a melting point of 214 to 217 °C.

With `O=C1CC(c2cccc(-n3ccnc3)c2)=Nc2cc(O)c(C#Cc3ccc(F)cc3)cc2N1`, the melting point turned out to be 247 °C.

`C=CCCOc1ccc(C[C@H](NC(=O)OC(C)(C)C)C(=O)N[C@@H](CC(C)C)C(=O)O)cc1` displayed a melting point of 68 to 70 °C.

On to `Cc1nc2c(cnn2-c2c(Cl)cc(C(F)(F)F)cc2Cl)c(=O)[nH]1`, for which the melting point was 300 °C.

`O=C1c2ccccc2C(=O)N1OCc1cnoc1` registered a melting point of 133 to 135 °C.

In the case of `CCCCCCCCCCCCCCCCCCCCC(=S)NCCN1CCOCC1`, the melting point came out at 61 °C.

Regarding `CCCCc1nc2cc(Cl)cc(C(=O)O)c2n1Cc1ccccc1Cl`, the melting point was 261 to 262 °C.

`Cc1nc2cc(NC(=O)c3cc4cc(C(F)(F)F)cnc4n3Cc3ccncc3)ccc2s1`: the melting point lay within 208 to 210 °C.

In turn, `C=CCN1Cc2cscc2Nc2ccccc21` registered a melting point of 67 to 69 °C.

For the compound `O=C(NOCC(O)CO)c1cc(Cl)c(F)c(F)c1Nc1ccc(I)cc1Cl` (stereo unspecified), the melting point was in the range of 152 to 154 °C.

The compound `NC(=O)c1nsc(N)c1C(N)=O` came in with a melting point of 205 °C.

On to `COCC(COc1noc2ccc(Cl)cc12)NC=O` (stereo unspecified), for which the melting point lay in the range of 90 to 92 °C.

Turning to `O=c1[nH]c2cc(F)c(Cl)c(F)c2[nH]c1=O`, the melting point is > 250 °C.

Take `N#CC(Cc1c[nH]cn1)(c1ccccc1)c1ccc(Cl)cc1` (stereo unspecified): the melting point is 135 to 136 °C.

`CC(C)(NC(=O)CNC(=O)c1ccccc1)c1ccccc1` returned a melting point of 156 to 157 °C.

Compound `COc1ccc(S(=O)(=O)N2C(=O)C(N)(c3ccccc3)c3cc(Cl)ccc32)c(OC)c1` (stereo unspecified) had a melting point of 108 to 110 °C.

As for `NC(=O)c1cccc(-c2ccc(Oc3ccc(F)cc3)cc2)n1`, the melting point lay in the range of 150 to 152 °C.

The compound `Cn1cnc2c(=O)n(-c3ccccc3)c3ncccc3c21` gave a melting point of 262 °C.

As to `COC(=O)c1nc(Cc2ccccc2)n2c1CN=C(c1ccccc1Cl)c1cc(Cl)ccc1-2`, the melting point is 155 to 158 °C.

In turn, `O=C(O)c1cc(C(F)(F)F)cc(S(=O)(=O)Cc2ccccc2)c1` yielded a melting point of 184 to 186 °C.

The compound `CC(=O)N(C[C@H]1CN(c2ccc(N3CCC4(CC3)OCCO4)c(F)c2)C(=O)O1)C(C)=O` displayed a melting point of 200 to 202 °C.

`CN(C(=O)CCC#Cc1ccccn1)c1ccccc1` came in with a melting point of 68 to 71 °C.

For the compound `O=C(Nc1ccc(N2CCNCC2)c(C(F)(F)F)c1)c1ccc(F)c(OCc2cccnc2)c1`, the melting point fell in the range of 61 to 66 °C.

`CCOC(=O)c1cc2cc(F)cnc2n1Cc1ccncc1` displayed a melting point of 236 to 237 °C.

As to `CCCNc1cn(-c2cccnc2)nc1C`, the melting point fell in the range of 65 to 67 °C.

`COc1cc(OC)nc(NC(=O)NS(=O)(=O)c2ccccc2CCOC(C)=O)n1` registered a melting point of 160 to 162 °C.

`O=C1NC(=O)C(c2ccc(N3C(=O)c4ccccc4C3=O)cc2)S1` (stereo unspecified) yielded a melting point of 243 to 245 °C.

For the compound `O=C(O)CN1C(=O)C(=Cc2csc(Nc3ccccc3)n2)SC1=S`, the melting point was in the range of 242 to 246 °C.

`Cn1c(=O)c(-c2c(Cl)cccc2Cl)cc2cnc(NC3CCCCC3)nc21` had a melting point of 242 to 244 °C.

Compound `N#CNc1nc2c(s1)Cc1cc(Cl)ccc1-2` came in with a melting point of 225 °C.

Take `O[C@@]1(c2ccc(Cl)c(Cl)c2)CCC[C@H]2NCC[C@H]21` (racemic): the melting point fell in the range of 190 to 191 °C.

`C=CCCN1CCN(c2nc(C)c(C(=O)NCc3cccnc3)s2)C1=O`: the melting point lay within 144 to 145 °C.

Take `CSc1nc(SC)nc(-c2cc(C(C)(C)C)c(O)c(C(C)(C)C)c2)n1`: the melting point turned out to be 94 °C.

`CCCn1c(CCOC)nc2c(N)nc3cc(OC(=O)NC(C)C)ccc3c21` gave a melting point of 144 to 146 °C.

In turn, `N#Cc1cccc(CN2CCc3cc(Cl)ccc32)c1` displayed a melting point of 73.5 to 75.5 °C.

For `O=C(C=Cc1cccc(-c2ccc(O)cc2)c1)NO`, the melting point lay within 127 to 128 °C.

The compound `O=Cc1ccc(Cc2ccccc2)cc1` yielded a melting point of 142 to 144 °C.

As for `COC(=O)C(c1ccccc1)(c1ncc[nH]1)c1ccccc1C` (stereo unspecified), the melting point came out at 148 °C.

Compound `CCOC(=O)C1=C(C)NC(c2nccn2C)=NC1c1ccc(F)cc1Cl` (stereo unspecified) registered a melting point of 166 to 167 °C.

In the case of `CCOc1cccn2nc(-c3ccccc3)c(-c3ccc(=O)n(C(C)C)n3)c12`, the melting point was 157 to 158 °C.

On to `O=C(OC1C(=O)NC1c1ccccc1)c1ccccc1` (stereo unspecified), for which the melting point is 118 to 119 °C.

Compound `CCOP(=O)(OCC)C(O)c1ccc([N+](=O)[O-])cc1` (stereo unspecified) came in with a melting point of 94 to 95 °C.

As to `CC(=O)C=CSc1ncc(Cl)cn1`, the melting point was determined as 89 °C.

In the case of `CC(=O)N1CCN=C1Nc1ccnn1-c1ccc(F)cc1`, the melting point lay in the range of 162 to 164 °C.

On to `Cc1oc(-c2ccc(C(F)(F)F)cc2)nc1CCl`, for which the melting point was in the range of 84 to 85 °C.

`OCCCc1nc2ccccn2n1`: the melting point fell in the range of 71.5 to 73 °C.

Regarding `COCCOc1cc2ncnc(Nc3cc(O)c(Cl)cc3F)c2cc1OC`, the melting point is > 250 °C.

In turn, `Oc1cc2ccccn2n1` returned a melting point of 127 to 128 °C.

As to `CS(=O)(=O)c1ccc(C(Cc2ccc(F)cc2)C(=O)Nc2nc3ncccc3o2)cc1` (stereo unspecified), the melting point is 261 to 264 °C.

As to `O=c1cc(-c2cncnc2)oc2c(O)c(O)ccc12`, the melting point is > 300 °C.

In turn, `CC1(C)Oc2ccc(C#N)cc2C(Oc2cccnc2)C1(C)O` (stereo unspecified) registered a melting point of 193 to 196 °C.

As to `O=C(Nc1ccc(C#CCCN2CC=C(c3ccccc3)CC2)nc1)c1cccs1`, the melting point lay within 187 to 188 °C.

`O=C(Nc1ccc(-n2nc(C(F)(F)F)cc2C2CC2)cc1)c1cccc(F)c1F` had a melting point of 147 to 152 °C.

In turn, `CC(=O)OC1CSC(Oc2cncc(-c3ccncc3C)c2)C(OC(C)=O)C1OC(C)=O` (stereo unspecified) gave a melting point of 153 to 174 °C.

With `Nc1ccc(C(=O)OC2CCN(Cc3ccccc3)CC2)cc1`, the melting point fell in the range of 119 to 120 °C.

For `O=C1C2=C(SCCO2)C(=O)N1c1ccc2ccc(Cl)nc2n1`, the melting point was 264 °C.

Turning to `CCOC(=O)CC(=O)C=Cc1ccccc1[N+](=O)[O-]`, the melting point is 72 °C.

`CCCn1cc(CN(C(=O)C2CCCc3c(O)cccc32)c2ccc(C(C)C)cc2)cn1` (stereo unspecified) came in with a melting point of 161 °C.

As for `CSC(=C[N+](=O)[O-])NCCSCc1ncccc1Cl`, the melting point was in the range of 80 to 82.5 °C.

`CC(=O)CC(=O)c1ccccn1` yielded a melting point of 46 to 49 °C.

Compound `Nc1sc2c(c1C(=O)c1ccc(Cl)cc1)CCS2` came in with a melting point of 146 to 150 °C.

Consider `Cc1c(C)c2c(c(C)c1O)CCC(C)(COc1ccc(CC3SC(=N)NC3=O)cc1)O2` (stereo unspecified), for which the melting point was 205 to 207 °C.

In the case of `NC(=O)c1ccccc1OCCNCC(O)COc1nccnc1Cl` (stereo unspecified), the melting point lay in the range of 132 to 133 °C.

With `Clc1ccc2c(c1)C(c1ccccc1Cl)=NCCN2C1=NCCS1`, the melting point is 123 to 124 °C.

In turn, `COc1cc(N2CCOCC2)ccc1Nc1nc(Nc2ccc3c(c2OC)CCCC(=O)N3C)ncc1Cl` showed a melting point of 197 to 199 °C.

Take `Nc1cccc(C2NC(=O)Cc3ccccc32)c1` (stereo unspecified): the melting point lay in the range of 179 to 180 °C.

In turn, `COc1nc(C)cnc1N(C(=O)OCC(C)C)S(=O)(=O)c1cccnc1-c1ccc(CC(C)C)cc1` gave a melting point of 133 to 137 °C.

On to `O=C1CCCc2nc3ccccc3c(NCc3ccc(Cl)cc3)c21`, for which the melting point is 162 to 164 °C.

Broadly, the melting point is the temperature of the solid-liquid transition.

For the origin of these results see a melting point compilation (Tetko et al.; mined from patent text by program, amines drawn as free bases though some values may be those of a salt).
